Measured values as given in the NIST ThermoML archive (doi:10.1021/je400056z).
± gives the expanded uncertainty stated by the source.

Test: xn = mol fraction of the nth substance listed
Settings: Liquid, Vibrating tube method

`CCCCCCC` [heptane] + O=C=O gave a mass density (332.7 K, 16980 kPa, x2 = 0.9496) of 697.86 ± 0.59 kg/m3, a mass density (332.7 K, 18002 kPa, x2 = 0.9496) of 713.39 ± 0.55 kg/m3 and a mass density (332.7 K, 19004 kPa, x2 = 0.9496) of 727.03 ± 0.53 kg/m3. For the same compound, the mass density (332.7 K, 19979 kPa, x2 = 0.9496) was 738.9 ± 0.51 kg/m3, the mass density (332.7 K, 20995 kPa, x2 = 0.9496) was 749.98 ± 0.49 kg/m3 and the mass density (332.7 K, 22006 kPa, x2 = 0.9496) was 760 ± 0.48 kg/m3. The mass density (332.7 K, 23011 kPa, x2 = 0.9496) was 769.32 ± 0.46 kg/m3, the mass density (332.7 K, 24046 kPa, x2 = 0.9496) was 778.17 ± 0.46 kg/m3 and the mass density (332.7 K, 24505 kPa, x2 = 0.9496) was 781.98 ± 0.45 kg/m3. For the same compound, the mass density (332.72 K, 5013 kPa, x2 = 0.3148) was 672.27 ± 0.29 kg/m3, the mass density (332.72 K, 6004 kPa, x2 = 0.3148) was 673.82 ± 0.3 kg/m3 and the mass density (332.72 K, 7000 kPa, x2 = 0.3148) was 675.27 ± 0.31 kg/m3. The mass density (332.72 K, 8008 kPa, x2 = 0.3148) was 676.79 ± 0.32 kg/m3, the mass density (332.72 K, 9003 kPa, x2 = 0.3148) was 678.48 ± 0.32 kg/m3 and the mass density (332.72 K, 10007 kPa, x2 = 0.3148) was 680.17 ± 0.33 kg/m3. It also gave a mass density (332.72 K, 11008 kPa, x2 = 0.3148) of 681.84 ± 0.34 kg/m3, a mass density (332.72 K, 11995 kPa, x2 = 0.3148) of 683.4 ± 0.35 kg/m3 and a mass density (332.72 K, 12994 kPa, x2 = 0.3148) of 684.97 ± 0.35 kg/m3. The mass density (332.72 K, 14002 kPa, x2 = 0.3148) was 686.5 ± 0.36 kg/m3, the mass density (332.72 K, 15009 kPa, x2 = 0.3148) was 688.01 ± 0.37 kg/m3 and the mass density (332.72 K, 16005 kPa, x2 = 0.3148) was 689.47 ± 0.38 kg/m3. The mass density (332.72 K, 16994 kPa, x2 = 0.3148) was 690.88 ± 0.39 kg/m3, the mass density (332.72 K, 17996 kPa, x2 = 0.3148) was 692.28 ± 0.39 kg/m3 and the mass density (332.72 K, 19002 kPa, x2 = 0.3148) was 693.66 ± 0.4 kg/m3. For the same compound, the mass density (332.72 K, 20001 kPa, x2 = 0.3148) was 695.02 ± 0.41 kg/m3, the mass density (332.72 K, 21004 kPa, x2 = 0.3148) was 696.34 ± 0.42 kg/m3 and the mass density (332.72 K, 22014 kPa, x2 = 0.3148) was 697.64 ± 0.43 kg/m3. For the same compound, the mass density (332.72 K, 22998 kPa, x2 = 0.3148) was 698.95 ± 0.43 kg/m3, the mass density (332.72 K, 24000 kPa, x2 = 0.3148) was 700.22 ± 0.44 kg/m3 and the mass density (332.72 K, 25010 kPa, x2 = 0.3148) was 701.53 ± 0.45 kg/m3. The mass density (332.73 K, 9976 kPa, x2 = 0.7514) was 687.42 ± 0.38 kg/m3, the mass density (332.73 K, 11027 kPa, x2 = 0.7514) was 694.77 ± 0.41 kg/m3 and the mass density (332.73 K, 12005 kPa, x2 = 0.7514) was 701.07 ± 0.39 kg/m3. For the same compound, the mass density (332.73 K, 13004 kPa, x2 = 0.7514) was 706.72 ± 0.39 kg/m3, the mass density (332.73 K, 14002 kPa, x2 = 0.7514) was 712.07 ± 0.38 kg/m3 and the mass density (332.73 K, 15007 kPa, x2 = 0.7514) was 716.96 ± 0.38 kg/m3. The mass density (332.73 K, 16008 kPa, x2 = 0.7514) was 721.73 ± 0.38 kg/m3, the mass density (332.73 K, 17006 kPa, x2 = 0.7514) was 726.16 ± 0.38 kg/m3 and the mass density (332.73 K, 17992 kPa, x2 = 0.7514) was 730.25 ± 0.38 kg/m3. The mass density (332.73 K, 19005 kPa, x2 = 0.7514) was 734.18 ± 0.39 kg/m3, the mass density (332.73 K, 19992 kPa, x2 = 0.7514) was 737.97 ± 0.39 kg/m3 and the mass density (332.73 K, 21048 kPa, x2 = 0.7514) was 741.67 ± 0.39 kg/m3. The mass density (332.73 K, 21991 kPa, x2 = 0.7514) was 745.02 ± 0.39 kg/m3, the mass density (332.73 K, 22997 kPa, x2 = 0.7514) was 748.43 ± 0.4 kg/m3 and the mass density (332.73 K, 23997 kPa, x2 = 0.7514) was 751.86 ± 0.4 kg/m3. It also gave a mass density (332.73 K, 24860 kPa, x2 = 0.7514) of 754.69 ± 0.4 kg/m3, a mass density (332.8 K, 3011 kPa, x2 = 0.0218) of 654.41 ± 0.28 kg/m3 and a mass density (332.8 K, 4004 kPa, x2 = 0.0218) of 655.67 ± 0.29 kg/m3. It also gave a mass density (332.8 K, 5003 kPa, x2 = 0.0218) of 656.85 ± 0.3 kg/m3, a mass density (332.8 K, 6000 kPa, x2 = 0.0218) of 658.03 ± 0.3 kg/m3 and a mass density (332.8 K, 7004 kPa, x2 = 0.0218) of 659.2 ± 0.31 kg/m3. For the same compound, the mass density (332.8 K, 8007 kPa, x2 = 0.0218) was 660.37 ± 0.32 kg/m3, the mass density (332.8 K, 9001 kPa, x2 = 0.0218) was 661.51 ± 0.33 kg/m3 and the mass density (332.8 K, 10004 kPa, x2 = 0.0218) was 662.62 ± 0.34 kg/m3. For the same compound, the mass density (332.8 K, 10998 kPa, x2 = 0.0218) was 663.71 ± 0.35 kg/m3, the mass density (332.8 K, 12002 kPa, x2 = 0.0218) was 664.82 ± 0.36 kg/m3 and the mass density (332.8 K, 12996 kPa, x2 = 0.0218) was 665.83 ± 0.37 kg/m3. The mass density (332.8 K, 13999 kPa, x2 = 0.0218) was 666.94 ± 0.37 kg/m3, the mass density (332.8 K, 15004 kPa, x2 = 0.0218) was 667.94 ± 0.38 kg/m3 and the mass density (332.8 K, 16005 kPa, x2 = 0.0218) was 668.95 ± 0.39 kg/m3. For the same compound, the mass density (332.8 K, 16998 kPa, x2 = 0.0218) was 669.95 ± 0.4 kg/m3, the mass density (332.8 K, 18005 kPa, x2 = 0.0218) was 670.91 ± 0.41 kg/m3 and the mass density (332.8 K, 19003 kPa, x2 = 0.0218) was 671.91 ± 0.42 kg/m3. It also gave a mass density (332.8 K, 20002 kPa, x2 = 0.0218) of 672.83 ± 0.43 kg/m3, a mass density (332.8 K, 21008 kPa, x2 = 0.0218) of 673.8 ± 0.44 kg/m3 and a mass density (332.8 K, 21997 kPa, x2 = 0.0218) of 674.76 ± 0.45 kg/m3. For the same compound, the mass density (332.8 K, 22998 kPa, x2 = 0.0218) was 675.69 ± 0.46 kg/m3 and the mass density (332.8 K, 24009 kPa, x2 = 0.0218) was 676.63 ± 0.47 kg/m3.
